Values of other authors, collected in patent publication US11491138B2, “Injectable psychoactive alkaloid composition and preparation thereof” (PSILO SCIENTIFIC LTD, priority 2020, dated 2022).

Experiments:
[1] = reason for composition pH of 4.5-5.5
[2] = stated as known property

Which results are given for `CN(C)CCc1c[nH]c2cccc(O)c12` [psilocin]?
pH at which instability occurs [1]: over 5.5 pH; isoelectric point [2]: 8.47±0.25 pH
